In brackets after ≈: the same amount, converted by molar mass. Activity calls are given as the source filed them. The rule behind the calls is not given here.
Assays:
Staphylococcus aureus [1] = experiment: Concentration that inhibits 50% growth of methicillin resistant Staphylococcus aureus in the microdilution wells; type: functional, organism-based
Staphylococcus aureus [2] = experiment: Minimal inhibitory concentration for Staphylococcus aureus bacteria (ATCC 9604 SV) was determined by broth microdilution methodology; type: functional
Mus musculus [3] = experiment: In vivo efficacy versus methicillin resistant Staphylococcus aureus in mice administered sc at 20 mg/kg, expressed as percent survival; type: functional; details: route subcutaneous
Mus musculus [4] = experiment: In vivo efficacy versus methicillin resistant Staphylococcus aureus in mice administered sc at 2mg/kg, expressed as percent survival; type: functional
Staphylococcus aureus [5] = experiment: Concentration that inhibits 50% growth of methicillin resistant Staphylococcus aureus in the microdilution wells; IA=Inactive; type: functional, organism-based
Staphylococcus aureus [6] = experiment: Minimal inhibitory concentration for Staphylococcus aureus bacteria (ATCC 9604 SV) was determined by broth microdilution methodology; IA=Inactive; type: functional, organism-based
Mus musculus [7] = experiment: In vivo efficacy versus methicillin resistant Staphylococcus aureus in mice administered sc at 2x20mg/kg, expressed as percent survival; type: functional
Mus musculus [8] = experiment: In vivo efficacy versus methicillin resistant Staphylococcus aureus in mice administered sc at 2x2mg/kg, expressed as percent survival; type: functional

Compound	IC50 (Staphylococcus aureus [1])	MIC (Staphylococcus aureus [2])	further results
Cc1sc(NC(=O)Nc2cc(C(F)(F)F)cc(C(F)(F)F)c2)nc1-c1ccc(Br)cc1	838 nM	–	–
O=C(Nc1ccc(SC(F)(F)F)cc1)Nc1nc(-c2ccc(F)c(F)c2)cs1	134 nM	< 0.647 µg/mL	–
Cc1cc(C)cc(NC(=O)Nc2nc(-c3ccc(Cl)cc3)cs2)c1	> 5000 nM	–	–
O=C(Nc1cc(C(F)(F)F)cc(C(F)(F)F)c1)Nc1cc(-c2ccccc2)nn1-c1ccc(C(F)(F)F)cc1	54 nM	< 0.838 µg/mL	survival at 20 mg/kg (Mus musculus [3]): 0%; survival at 2 mg/kg (Mus musculus [4]): 0%
O=C(Nc1ccc(Cl)c(C(F)(F)F)c1)Nc1cc(-c2ccccc2)nn1-c1ccc(C(F)(F)F)cc1	96 nM	< 0.787 µg/mL	–
Cc1ccccc1NC(=O)Nc1cc(-c2ccccc2)nn1-c1ccc(C(F)(F)F)cc1	–	–	IC50 (Staphylococcus aureus [5]): Not Active; MIC (Staphylococcus aureus [6]): inactive
Cc1cc(NC(=O)Nc2cc(C(F)(F)F)cc(C(F)(F)F)c2)n(-c2ccc(Br)cc2)n1	268 nM	< 0.761 µg/mL	–
CN[C@H](CC(C)C)C(=O)N[C@H]1C(=O)N[C@@H](CC(N)=O)C(=O)N[C@H]2C(=O)N[C@H]3C(=O)N[C@H](C(=O)N[C@H](C(=O)O)c4cc(O)cc(O)c4-c4cc3ccc4O)[C@H](O)c3ccc(c(Cl)c3)Oc3cc2cc(c3O[C@@H]2O[C@H](CO)[C@@H](O)[C@H](O)[C@H]2O[C@H]2C[C@](C)(N)[C@H](O)[C@H](C)O2)Oc2ccc(cc2Cl)[C@H]1O [VANCOMYCIN]	839 nM	0.75 µg/mL (≈ 0.518 µM)	Survival (Mus musculus [7]): 100%; Survival (Mus musculus [8]): 25%
O=C(Nc1ccc(C(F)(F)F)cc1Cl)Nc1cc(-c2ccccc2)nn1-c1ccc(C(F)(F)F)cc1	–	–	IC50 (Staphylococcus aureus [5]): Not Active; MIC (Staphylococcus aureus [6]): inactive
COc1cc(NC(=O)Nc2nc(-c3ccc(Cl)cc3)cs2)cc(OC)c1	> 5000 nM	–	–
CC(C)(C)c1cc(NC(=O)Nc2cc(Cl)cc(Cl)c2)n(-c2ccc(Br)cc2)n1	132 nM	< 0.723 µg/mL	survival at 20 mg/kg (Mus musculus [3]): 0%; survival at 2 mg/kg (Mus musculus [4]): 0%
O=C(Nc1cc(C(F)(F)F)cc(C(F)(F)F)c1)Nc1nc(CCCO)cs1	2070 nM	–	–
O=C(Nc1cc(Cl)cc(Cl)c1)Nc1cc(-c2ccccc2)nn1-c1ccc(C(F)(F)F)cc1	81 nM	12.3 µg/mL (≈ 25 µM)	survival at 20 mg/kg (Mus musculus [3]): 12.5%; survival at 2 mg/kg (Mus musculus [4]): 0%
O=C(Nc1cc(C(F)(F)F)cc(C(F)(F)F)c1)Nc1nc(CCc2ccccc2)cs1	367 nM	23 µg/mL (≈ 50.1 µM)	–
O=C(Nc1cc(C(F)(F)F)cc(C(F)(F)F)c1)Nc1c(-c2ccccc2)cnn1-c1ccc(C(F)(F)F)cc1	330 nM	–	survival at 20 mg/kg (Mus musculus [3]): 0%; survival at 2 mg/kg (Mus musculus [4]): 0%
COc1ccc(OC)c(-c2csc(NC(=O)Nc3cc(C(F)(F)F)cc(C(F)(F)F)c3)n2)c1	> 5000 nM	–	–
COc1ccc(-c2csc(NC(=O)Nc3cc(C(F)(F)F)cc(C(F)(F)F)c3)n2)c(OC)c1	> 5000 nM	–	–
O=C(Nc1cc(C(F)(F)F)cc(C(F)(F)F)c1)Nc1cc(CO)nn1-c1ccc(Br)cc1	4240 nM	6.54 µg/mL (≈ 12.5 µM)	Survival (Mus musculus [7]): 33%; Survival (Mus musculus [8]): 33%

Compound	IC50 (Staphylococcus aureus [1])	MIC (Staphylococcus aureus [2])	further results
CC(C)(C)c1csc(NC(=O)NCc2cccc(Cl)c2)n1	–	8.1 µg/mL (≈ 25 µM)	Survival (Mus musculus [7]): 50%; Survival (Mus musculus [8]): 25%
O=C(Nc1cc(C(F)(F)F)cc(C(F)(F)F)c1)Nc1cc(-c2ccncc2)nn1-c1ccc(C(F)(F)F)cc1	214 nM	1.68 µg/mL (≈ 3 µM)	survival at 20 mg/kg (Mus musculus [3]): 25%; survival at 2 mg/kg (Mus musculus [4]): 25%; Survival (Mus musculus [7]): 17%; Survival (Mus musculus [8]): 0%
O=C(Nc1cc(Cl)cc(Cl)c1)Nc1cc(-c2cccs2)nn1-c1ccc(Br)cc1	71 nM	0.847 µg/mL (≈ 1.67 µM)	survival at 20 mg/kg (Mus musculus [3]): 25%; survival at 2 mg/kg (Mus musculus [4]): 0%
O=C(Nc1nc(-c2ccc(Cl)cc2)cs1)Nc1ccc(Br)cc1C(F)(F)F	4710 nM	–	–
O=C(Nc1ccc(F)c(C(F)(F)F)c1)Nc1nc(-c2ccc(F)c(F)c2)cs1	180 nM	< 0.626 µg/mL	survival at 20 mg/kg (Mus musculus [3]): 0%; survival at 2 mg/kg (Mus musculus [4]): 0%
O=C(NCc1cccc(Cl)c1)Nc1nc(C2CCCC2)cs1	–	8.4 µg/mL (≈ 25 µM)	Survival (Mus musculus [7]): 25%; Survival (Mus musculus [8]): 25%
O=C(Nc1cc(Cl)cc(Cl)c1)Nc1cc(-c2ccccc2)nn1-c1ccc(Cl)cc1	148 nM	> 22.9 µg/mL	survival at 20 mg/kg (Mus musculus [3]): 25%; survival at 2 mg/kg (Mus musculus [4]): 25%
O=C(NCc1ccc(Cl)c(Cl)c1)Nc1nc(-c2ccc(Br)cc2)cs1	–	11.4 µg/mL (≈ 24.9 µM)	–
O=C(Nc1cc(C(F)(F)F)cc(C(F)(F)F)c1)Nc1nc(-c2cccs2)cs1	259 nM	1.31 µg/mL (≈ 3 µM)	–
O=C(Nc1ccccc1-c1ccccc1)Nc1cc(-c2ccccc2)nn1-c1ccc(C(F)(F)F)cc1	–	–	IC50 (Staphylococcus aureus [5]): Not Active; MIC (Staphylococcus aureus [6]): inactive
COCCN(CCOC)Cc1cc(NC(=O)Nc2cc(C(F)(F)F)cc(C(F)(F)F)c2)n(-c2ccc(Br)cc2)n1	1560 nM	16 µg/mL (≈ 25.1 µM)	survival at 20 mg/kg (Mus musculus [3]): 25%; survival at 2 mg/kg (Mus musculus [4]): 25%; Survival (Mus musculus [7]): 33%; Survival (Mus musculus [8]): 0%
Cc1cc(C)cc(NC(=O)Nc2cc(-c3ccccc3)nn2-c2ccc(C(F)(F)F)cc2)c1	–	–	IC50 (Staphylococcus aureus [5]): Not Active; MIC (Staphylococcus aureus [6]): inactive
CCOC(=O)c1cnn(-c2ccc(Br)cc2)c1NC(=O)Nc1cc(C(F)(F)F)cc(C(F)(F)F)c1	261 nM	< 0.848 µg/mL	–
O=C(Nc1cc(C(F)(F)F)cc(C(F)(F)F)c1)Nc1nc(-c2ccc(Br)cc2)cs1	133 nM	–	–
CCOC(=O)c1cc(NC(=O)Nc2cc(C(F)(F)F)cc(C(F)(F)F)c2)n(-c2ccc(Br)cc2)n1	3100 nM	> 14.1 µg/mL	Survival (Mus musculus [7]): 33%; Survival (Mus musculus [8]): 0%
O=C(Nc1nc(-c2ccc(Cl)cc2)cs1)Nc1c(Cl)cc(Cl)cc1Cl	927 nM	–	–
O=C(Nc1cccc(Br)c1)Nc1nc(-c2ccc(Br)cc2)cs1	543 nM	–	–

Reference: ChEMBL document CHEMBL1136498, “Ureas of 5-aminopyrazole and 2-aminothiazole inhibit growth of gram-positive bacteria” (Bioorg Med Chem Lett, 2003)
